# Key:
# Conditions in all cases: 72 h
# Calu-3 [1] = test: drug sensitivity score (DSS) for viability; higher = more toxic; extreme values may be limits of the assay
# HepG2 [2] = test: as above
# Vero E6 [3] = test: as above
# Caco-2 [4] = test: as above
# Calu-3 [5] = test: relative viability EC50 (midpoint between 100% and the lowest measured viability); higher = less toxic
# HepG2 [6] = test: as above
# Vero E6 [7] = test: as above
# Caco-2 [8] = test: as above
# Calu-3 [9] = test: cell viability relative to DMSO; higher = less toxic
# HepG2 [10] = test: as above
# Vero E6 [11] = test: as above
# Caco-2 [12] = test: as above
# U2OS [13] = test: drug sensitivity score (DSS) for viability; higher = more toxic; extreme values may be limits of the assay
# U2OS [14] = test: relative viability EC50 (midpoint between 100% and the lowest measured viability); higher = less toxic
# U2OS [15] = test: cell viability relative to DMSO; higher = less toxic
SMILES,drug sensitivity score (Calu-3 [1]),drug sensitivity score (HepG2 [2]),drug sensitivity score (Vero E6 [3]),drug sensitivity score (Caco-2 [4]),relative viability EC50 (Calu-3 [5]) [µM],relative viability EC50 (HepG2 [6]) [µM],relative viability EC50 (Vero E6 [7]) [µM],relative viability EC50 (Caco-2 [8]) [µM],cell viability (Calu-3 [9]; 1 nM) [%],cell viability (Calu-3 [9]; 10 nM) [%],cell viability (Calu-3 [9]; 100 nM) [%],cell viability (Calu-3 [9]; 1000 nM) [%],cell viability (Calu-3 [9]; 10000 nM) [%],cell viability (HepG2 [10]; 1 nM) [%],cell viability (HepG2 [10]; 10 nM) [%],cell viability (HepG2 [10]; 100 nM) [%],cell viability (HepG2 [10]; 1000 nM) [%],cell viability (HepG2 [10]; 10000 nM) [%],cell viability (Vero E6 [11]; 1 nM) [%],cell viability (Vero E6 [11]; 10 nM) [%],cell viability (Vero E6 [11]; 100 nM) [%],cell viability (Vero E6 [11]; 1000 nM) [%],cell viability (Vero E6 [11]; 10000 nM) [%],cell viability (Caco-2 [12]; 1 nM) [%],cell viability (Caco-2 [12]; 10 nM) [%],cell viability (Caco-2 [12]; 100 nM) [%],cell viability (Caco-2 [12]; 1000 nM) [%],cell viability (Caco-2 [12]; 10000 nM) [%],drug sensitivity score (U2OS [13]),relative viability EC50 (U2OS [14]) [µM],cell viability (U2OS [15]; 1 nM) [%],cell viability (U2OS [15]; 10 nM) [%],cell viability (U2OS [15]; 100 nM) [%],cell viability (U2OS [15]; 1000 nM) [%],cell viability (U2OS [15]; 10000 nM) [%]
CC(C)(C#N)c1ccc(N2C(=O)OCc3cnc4ccc(-c5cnc6ccccc6c5)cc4c32)cc1,7.1,0,0.5,3.7,0.939,> 10,> 10,> 10,110,97.3,110,68.3,41.5,116,113,96.4,100,89.6,109,104,103,97.4,84.6,107,108,102,75,77.4,,,,,,,
CCCc1c(OCC(O)COc2ccc3c(=O)cc(C(=O)O)oc3c2CCC)ccc(C(C)=O)c1O (stereo not given),0,0,0,0,> 10,> 10,> 10,> 10,107,90.8,99.7,102,109,99.8,107,96.9,103,92.4,102,105,97.2,97.9,89.6,99.1,92.4,93.6,102,95,0,> 10,104,95.5,102,97.4,98.9
COc1cc(Br)c(S(=O)(=O)Nc2ccc(C(F)(F)F)c(O[C@@H]3CCN(C)C3)c2)cc1OC,0,0,0,0,> 10,> 10,> 10,> 10,103,94.7,99.3,98.1,104,85.4,107,93.3,96.7,91.2,91.5,101,99,103,94.9,102,100,101,95.9,95.9,0,> 10,105,96.3,95,98.3,96.6
COc1ncc(-c2ccc3c(Nc4cc(Oc5cc(F)cc(F)c5)cc(C(=O)O)c4)c(S(=O)(=O)NC4CC4)cnc3c2)c(OC)n1,0,0.2,0,0,> 10,> 10,> 10,> 10,95.3,107,87.9,96.3,102,97,107,96.8,101,85.6,101,101,99.9,104,101,103,100,85,92.2,97.5,0,> 10,104,104,98.8,93.2,99.8
CS(=O)(=O)Nc1ccc(Cc2noc(-c3ccc4[nH]cc(CCN)c4c3)n2)cc1,0,0,0,0,> 10,> 10,> 10,> 10,104,101,102,90.2,103,93.8,116,91.2,95.8,98,98.3,105,100,101,106,97.9,101,105,98.5,104,0,> 10,98.6,96.9,102,99.1,98.8
Cc1ccc2c(=O)c3ccccc3n(CCCN)c2c1C,7.3,12.4,10.3,7,1.6,0.777,1.12,1.32,97.8,102,104,81.3,20.6,99.3,94.2,102,38.2,5.4,96.2,99.9,91.7,57,3.7,100,92.8,91.6,72.7,28.5,5.3,3.33,100,102,96.9,103,1.3
Cc1ncc(Cl)cc1NCc1ccc(C(=O)N[C@@H](CC2CCCC2)C(=O)NC2CC2)s1,0,0.4,0,0,> 10,> 10,> 10,> 10,94.7,106,99.8,89.7,109,100,102,97.5,89.7,88.2,107,94.7,104,98,91.6,99.9,104,97.5,96.3,96.6,0,> 10,99.5,104,94.5,95,90.6
Cc1noc(NS(=O)(=O)c2cccc3c(N(C)C)cccc23)c1C,0,0,0,0,> 10,> 10,> 10,> 10,97.7,104,95.4,97.3,103,99.6,96,108,94.5,110,103,92.8,98.3,90.5,103,80.6,103,96.7,91.7,105,0,> 10,93.5,101,100,100,103
O=C(O)c1ccc(CN2CCC(CN[C@@H]3C[C@H]3c3ccccc3)CC2)cc1,0,0,0,0,> 10,> 10,> 10,> 10,89.3,101,94.7,102,103,105,93.8,104,92.5,92,100,103,99.2,90.9,95.2,101,108,94,105,102,0,> 10,95.9,96.8,95.8,98.3,96
"Clc1cccc(/C=N/N=C/c2cccc(Cl)c2)c1 [3,3'-dichlorobenzaldazine]",0,0.3,0,0,> 10,> 10,> 10,> 10,107,93.9,96.7,97.5,96.1,94.8,95.6,101,100,84.5,99.6,103,99.5,98.9,99.5,103,99.1,105,94.7,103,,,,,,,
CC(=O)N1CCC[C@H]1C(=O)N[C@@H](Cc1cnc[nH]1)C(=O)N[C@@H](CO)C(=O)N[C@@H](CS)C(=O)N[C@@H](CC(N)=O)C(N)=O [ATN-161],0,0,0,0,> 10,> 10,> 10,> 10,102,102,101,107,97.2,102,104,106,93.4,106,92.9,103,96.9,100,108,107,96.6,97.5,103,104,,,,,,,
O=c1[nH]c2ccc(Cl)cc2c(N[C@@H]2CN3CCC2CC3)c1-c1nc2ccccc2[nH]1 [CHIR-124],2.4,12.7,8.6,7,,0.777,1.59,0.869,92.3,91.8,105,97.3,59.9,103,99.3,101,36.7,3.1,105,103,105,77.6,6.6,103,96.9,111,66.9,44,18,0.307,94.1,96.9,95.3,4.5,0.8
O=C1COc2nccc(-c3ccccc3F)c2CN1Cc1cc(C(F)(F)F)cc(C(F)(F)F)c1 [GPBAR-A],4.3,0,0,0.1,,> 10,> 10,> 10,81.2,104,67.2,98.7,68.1,108,91.3,103,94.4,100,101,99,98.9,101,102,102,102,106,102,86.9,0,> 10,97.7,103,100,104,91.2
CNc1ncnc2c1ncn2[C@@H]1O[C@H](CO)[C@@H](O)[C@H]1O [N6-methyladenosine],0.7,0.3,0,0,> 10,> 10,> 10,> 10,110,89.5,102,92,86,105,108,101,104,81.2,99.8,103,102,98.7,102,109,112,98.5,110,106,,,,,,,

# From the supplement of paper PMC13380429
